Assays:
125I-TGF-β2-α2M* complex = target: T1, 125I-TGF-β2-α2M* complex (Homo sapiens, UniProt P01023); assay: Dissociation of preformed 125I-TGF-β2-α2M* complex; type: binding; conditions: at 250 μM
T1 construct: was purified from pooled citrate-treate human plasma; from tissue; host or cells: pooled citrate-treated human plasma
T1 sequence (P01023 24-1474): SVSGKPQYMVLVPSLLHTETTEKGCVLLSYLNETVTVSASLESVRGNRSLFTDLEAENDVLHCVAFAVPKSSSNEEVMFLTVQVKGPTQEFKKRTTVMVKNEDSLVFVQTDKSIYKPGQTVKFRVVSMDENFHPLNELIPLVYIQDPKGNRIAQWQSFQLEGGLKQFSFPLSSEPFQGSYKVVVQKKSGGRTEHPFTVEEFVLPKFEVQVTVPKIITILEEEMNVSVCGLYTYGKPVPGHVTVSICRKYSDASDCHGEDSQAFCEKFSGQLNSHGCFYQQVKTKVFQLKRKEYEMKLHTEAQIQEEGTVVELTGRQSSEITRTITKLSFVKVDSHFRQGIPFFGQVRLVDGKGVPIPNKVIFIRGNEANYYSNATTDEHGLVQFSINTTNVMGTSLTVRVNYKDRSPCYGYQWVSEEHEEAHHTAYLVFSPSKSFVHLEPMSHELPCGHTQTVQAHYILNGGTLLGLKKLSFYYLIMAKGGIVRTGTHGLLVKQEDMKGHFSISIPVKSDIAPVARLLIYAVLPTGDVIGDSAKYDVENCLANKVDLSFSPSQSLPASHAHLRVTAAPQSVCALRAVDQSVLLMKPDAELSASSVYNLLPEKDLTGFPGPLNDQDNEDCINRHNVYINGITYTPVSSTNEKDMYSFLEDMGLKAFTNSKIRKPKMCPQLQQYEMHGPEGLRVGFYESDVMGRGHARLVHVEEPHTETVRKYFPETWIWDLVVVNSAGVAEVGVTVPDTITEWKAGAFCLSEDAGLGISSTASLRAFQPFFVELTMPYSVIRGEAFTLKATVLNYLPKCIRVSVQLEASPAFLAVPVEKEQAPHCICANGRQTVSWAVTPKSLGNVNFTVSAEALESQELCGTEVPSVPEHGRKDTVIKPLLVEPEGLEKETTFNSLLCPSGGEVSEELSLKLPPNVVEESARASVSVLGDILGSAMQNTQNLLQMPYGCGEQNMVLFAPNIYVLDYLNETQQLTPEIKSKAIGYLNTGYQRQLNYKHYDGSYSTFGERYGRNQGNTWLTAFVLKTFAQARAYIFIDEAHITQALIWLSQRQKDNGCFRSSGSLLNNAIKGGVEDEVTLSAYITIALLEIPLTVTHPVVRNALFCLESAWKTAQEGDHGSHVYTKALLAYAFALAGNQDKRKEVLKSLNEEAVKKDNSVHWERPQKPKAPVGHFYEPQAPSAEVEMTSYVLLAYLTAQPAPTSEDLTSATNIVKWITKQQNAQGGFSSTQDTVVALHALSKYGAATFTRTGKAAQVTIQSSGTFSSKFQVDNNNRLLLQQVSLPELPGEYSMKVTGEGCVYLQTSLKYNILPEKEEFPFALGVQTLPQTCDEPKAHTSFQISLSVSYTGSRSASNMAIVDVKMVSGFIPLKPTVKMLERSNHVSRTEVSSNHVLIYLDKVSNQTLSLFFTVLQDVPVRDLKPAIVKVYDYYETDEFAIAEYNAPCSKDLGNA

125I-TGF-β1-α2M* complex = target: T2, 125I-TGF-β1-α2M* complex (Homo sapiens, UniProt P01023); assay: Dissociation of preformed 125I-TGF-β1-α2M* complex; type: binding; conditions: at 250 μM
T2 construct: was purified from pooled citrate-treate human plasma; from tissue; host or cells: pooled citrate-treated human plasma
T2 sequence (P01023 24-1474): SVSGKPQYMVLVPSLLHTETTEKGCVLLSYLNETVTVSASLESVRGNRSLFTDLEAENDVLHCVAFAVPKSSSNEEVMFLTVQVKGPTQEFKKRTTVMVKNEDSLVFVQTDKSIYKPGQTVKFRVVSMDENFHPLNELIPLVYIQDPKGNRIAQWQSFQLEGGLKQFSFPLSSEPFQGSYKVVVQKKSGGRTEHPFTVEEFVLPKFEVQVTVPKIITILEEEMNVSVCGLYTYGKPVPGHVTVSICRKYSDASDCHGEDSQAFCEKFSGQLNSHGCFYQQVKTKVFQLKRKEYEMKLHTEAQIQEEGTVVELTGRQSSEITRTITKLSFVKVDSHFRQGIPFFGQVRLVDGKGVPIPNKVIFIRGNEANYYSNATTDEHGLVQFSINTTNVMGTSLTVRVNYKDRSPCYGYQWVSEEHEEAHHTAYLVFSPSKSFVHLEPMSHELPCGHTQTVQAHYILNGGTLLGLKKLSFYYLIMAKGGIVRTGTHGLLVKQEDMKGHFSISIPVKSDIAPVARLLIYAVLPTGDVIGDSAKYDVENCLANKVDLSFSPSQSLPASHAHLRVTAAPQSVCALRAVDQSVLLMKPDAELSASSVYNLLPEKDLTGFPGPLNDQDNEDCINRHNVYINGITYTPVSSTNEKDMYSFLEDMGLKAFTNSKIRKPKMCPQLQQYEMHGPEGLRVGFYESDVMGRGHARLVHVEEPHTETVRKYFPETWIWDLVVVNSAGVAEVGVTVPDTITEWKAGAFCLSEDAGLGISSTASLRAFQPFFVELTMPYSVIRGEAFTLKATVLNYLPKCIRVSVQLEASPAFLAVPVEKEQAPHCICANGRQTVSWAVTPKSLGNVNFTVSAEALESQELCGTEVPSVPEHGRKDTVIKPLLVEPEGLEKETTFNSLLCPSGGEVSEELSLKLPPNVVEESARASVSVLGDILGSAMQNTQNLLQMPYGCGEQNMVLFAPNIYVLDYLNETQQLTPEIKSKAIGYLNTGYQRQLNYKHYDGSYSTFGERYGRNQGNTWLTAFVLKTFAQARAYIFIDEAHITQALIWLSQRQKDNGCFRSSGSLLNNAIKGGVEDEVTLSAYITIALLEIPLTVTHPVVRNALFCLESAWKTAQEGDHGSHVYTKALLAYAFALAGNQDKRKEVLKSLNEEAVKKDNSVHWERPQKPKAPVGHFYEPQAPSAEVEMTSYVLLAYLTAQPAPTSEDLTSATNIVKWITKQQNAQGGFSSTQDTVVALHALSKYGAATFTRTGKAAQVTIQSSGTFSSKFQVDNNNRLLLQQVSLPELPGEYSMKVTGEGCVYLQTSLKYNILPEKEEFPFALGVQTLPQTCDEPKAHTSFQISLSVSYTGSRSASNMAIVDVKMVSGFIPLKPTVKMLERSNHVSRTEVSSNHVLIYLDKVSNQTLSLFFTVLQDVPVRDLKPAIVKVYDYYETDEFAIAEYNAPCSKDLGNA
Procedure: To determine whether fatty acids are capable of dissociating TGF- ? - ? 2M* complexes, various concentrations of arachidonic acid were added to a reaction mixture containing ^125I-TGF- ? 1 or ^125I-TGF ? β3 and α2M* which had been preincubated at room temperature for 30 mi 30 minutes at room temperature, the ^125I-TGF ? β isoform-α2M* complexes in the reaction mixtures were analyzed by 5% non-denaturing PAGE. […] However, lower concentrations of arachidonic acid were effective in inhibiting complex formation of ^125I-TGF- ? 1 and α2M* than were required to dissociate the ^125I-TGF- ? 1- ? 2M* complex.

For `CCCCCCCCCCCCCC(=O)O` [myristic acid], the “dissociation of the 125I-TGF-β2-α2M* complex” value (125I-TGF-β2-α2M* complex) was “inactive” and the “dissociation of the 125I-TGF-β1-α2M* complex” value (125I-TGF-β1-α2M* complex) was “inactive”.
